From ChEMBL document CHEMBL4304773, “Nitroimidazole-containing compounds and their antibacterial and antitubercular activities” (2019)
Values after ≈ are worked out from the molar mass of the structure shown. Blank lines part the entries; values can stand above or below the compound they belong to.

Tests used:
Staphylococcus aureus [1] = assay: Antibacterial activity against Staphylococcus aureus; format: functional
Streptococcus pyogenes = assay: Antibacterial activity against Streptococcus pyogenes; format: functional
Staphylococcus aureus [2] = assay: Antibacterial activity against Staphylococcus aureus ATCC 6538 after 18 hrs by two fold serial dilution; format: functional; conditions: ATCC 6538, 18 h
Bacillus subtilis [3] = assay: Antibacterial activity against Bacillus subtilis PTCC 1023 after 18 hrs by two fold serial dilution; format: functional; conditions: PTCC 1023, 18 h
Klebsiella pneumoniae = assay: Antibacterial activity against Klebsiella pneumoniae ATCC 10031 after 18 hrs by two fold serial dilution; format: functional; conditions: ATCC 10031, 18 h
Escherichia coli [4] = assay: Antibacterial activity against Escherichia coli ATCC 8739 after 18 hrs by two fold serial dilution; format: functional; conditions: ATCC 8739, 18 h
Klebsiella aerogenes [5] = assay: Antibacterial activity against Enterobacter aerogenes PTCC 1221 after 18 hrs by two fold serial dilution; format: functional; conditions: PTCC 1221, 18 h
Staphylococcus aureus [6] = assay: Antibacterial activity against Staphylococcus aureus ATCC 25923 after 24 hrs by NCCLS method; format: functional; conditions: ATCC 25923, 24 h
Bacillus subtilis [7] = assay: Antibacterial activity against Bacillus subtilis ATCC 530 after 24 hrs by NCCLS method; format: functional; conditions: ATCC 530, 24 h
Escherichia coli [8] = assay: Antibacterial activity against Escherichia coli ATCC 25922 after 24 hrs by NCCLS method; format: functional; conditions: ATCC 25922, 24 h
Pseudomonas aeruginosa [9] = assay: Antibacterial activity against Pseudomonas aeruginosa ATCC 27853 after 24 hrs by NCCLS method; format: functional; conditions: ATCC 27853, 24 h
[10] = test system: Staphylococcus epidermidis; assay: Antibacterial activity against methicillin-sensitive Staphylococcus epidermidis by two fold dilution method; format: functional
Staphylococcus aureus [11] = assay: Antibacterial activity against methicillin-sensitive Staphylococcus aureus by two fold dilution method; format: functional
Escherichia coli [12] = assay: Antibacterial activity against Escherichia coli; format: functional
Pseudomonas aeruginosa [13] = assay: Antibacterial activity against Pseudomonas aeruginosa; format: functional
Candida albicans = assay: Antifungal activity against Candida albicans; format: functional
Proteus vulgaris = assay: Antibacterial activity against Proteus vulgaris; format: functional
Klebsiella aerogenes [14] = assay: Antibacterial activity against Klebsiella aerogenes; format: functional
Enterococcus faecalis = assay: Antibacterial activity against Enterococcus faecalis; format: functional
[15] = test system: Staphylococcus epidermidis; assay: Antibacterial activity against Staphylococcus epidermidis; format: functional
Salmonella typhimurium = assay: Antibacterial activity against Salmonella typhimurium; format: functional, Salmonella enterica subsp. enterica serovar Typhimurium; conditions: Salmonella enterica
Helicobacter pylori [16] = assay: Antibacterial activity against Helicobacter pylori NCTC 11637; format: functional
Helicobacter pylori [17] = assay: Antibacterial activity against Helicobacter pylori; format: functional
Helicobacter pylori [18] = assay: Antibacterial activity against metronidazole-resistant Helicobacter pylori clinical isolates; format: functional
Escherichia coli [19] = assay: Antibacterial activity against Escherichia coli infected in mouse; format: functional

- MIC (Staphylococcus aureus [1]): 184 to 2890 µM
- MIC (Streptococcus pyogenes): 184 to 2890 µM (≈ 63.7 to 1000 µg/mL)
Structure (SMILES): Cc1nc([N+](=O)[O-])cn1Cc1nn(CNc2ccccc2)c(=S)o1

- MIC (Staphylococcus aureus [2]): 4 to 32 µg/mL (≈ 11.3 to 90.3 µM)
- MIC (Bacillus subtilis [3]): > 64 µg/mL
- MIC (Klebsiella pneumoniae): > 64 µg/mL
- MIC (Escherichia coli [4]): > 64 µg/mL
- MIC (Klebsiella aerogenes [5]): > 64 µg/mL
Structure (SMILES): Cn1cnc([N+](=O)[O-])c1Sc1nnc(-c2ccc([N+](=O)[O-])o2)s1

- MIC (Staphylococcus aureus [1]): 184 to 2890 µM
- MIC (Streptococcus pyogenes): 184 to 2890 µM (≈ 65 to 1020 µg/mL)
Structure (SMILES): Cc1nc([N+](=O)[O-])cn1Cc1nn(CN2CCN(C)CC2)c(=S)o1

- MIC (Staphylococcus aureus [6]): 3.12 to 50 µg/mL (≈ 6.37 to 102 µM)
- MIC (Bacillus subtilis [7]): 3.12 to 50 µg/mL (≈ 6.37 to 102 µM)
- MIC (Escherichia coli [8]): 3.12 to 50 µg/mL (≈ 6.37 to 102 µM)
- MIC (Pseudomonas aeruginosa [9]): 3.12 to 50 µg/mL (≈ 6.37 to 102 µM)
Structure (SMILES): COc1ccc(Oc2c(/C=N/NC(=O)Cn3c([N+](=O)[O-])cnc3C)c(C)nn2-c2ccccc2)cc1

- MIC (Staphylococcus aureus [6]): 3.12 to 50 µg/mL (≈ 6.35 to 102 µM)
- MIC (Bacillus subtilis [7]): 3.12 to 50 µg/mL (≈ 6.35 to 102 µM)
- MIC (Escherichia coli [8]): 3.12 to 50 µg/mL (≈ 6.35 to 102 µM)
- MIC (Pseudomonas aeruginosa [9]): 3.12 to 50 µg/mL (≈ 6.35 to 102 µM)
Structure (SMILES): Cc1ccc(-n2nc(C)c(/C=N/NC(=O)Cn3c([N+](=O)[O-])cnc3C)c2Oc2ccc(F)cc2)cc1

- MIC (Staphylococcus aureus [1]): 31.2 to 500 µg/mL
- MIC (Escherichia coli [12]): 31.2 to 500 µg/mL (≈ 89.7 to 1440 µM)
- MIC (Pseudomonas aeruginosa [13]): 31.2 to 500 µg/mL (≈ 89.7 to 1440 µM)
- MIC (Candida albicans): 31.2 to 500 µg/mL (≈ 89.7 to 1440 µM)
- MIC (Proteus vulgaris): 31.2 to 500 µg/mL (≈ 89.7 to 1440 µM)
- MIC (Klebsiella aerogenes [14]): 31.2 to 500 µg/mL (≈ 89.7 to 1440 µM)
- MIC (Enterococcus faecalis): 31.2 to 500 µg/mL (≈ 89.7 to 1440 µM)
- MIC [15]: 31.2 to 500 µg/mL (≈ 89.7 to 1440 µM)
- MIC (Salmonella typhimurium): 31.2 to 500 µg/mL (≈ 89.7 to 1440 µM)
Structure (SMILES): Cc1ncc([N+](=O)[O-])n1CCN1C(=O)S/C(=C\c2ccco2)C1=O

- MIC (Staphylococcus aureus [6]): 3.12 to 50 µg/mL (≈ 6.32 to 101 µM)
- MIC (Bacillus subtilis [7]): 3.12 to 50 µg/mL (≈ 6.32 to 101 µM)
- MIC (Escherichia coli [8]): 3.12 to 50 µg/mL (≈ 6.32 to 101 µM)
- MIC (Pseudomonas aeruginosa [9]): 3.12 to 50 µg/mL (≈ 6.32 to 101 µM)
Structure (SMILES): Cc1nn(-c2ccccc2)c(Oc2ccc(Cl)cc2)c1/C=N/NC(=O)Cn1c([N+](=O)[O-])cnc1C

- MIC (Staphylococcus aureus [1]): 184 to 2890 µM
- MIC (Streptococcus pyogenes): 184 to 2890 µM (≈ 68.9 to 1080 µg/mL)
Structure (SMILES): CCc1ccc(NCn2nc(Cn3cc([N+](=O)[O-])nc3C)oc2=S)cc1

Second part, the compound before the results:

Structure (SMILES): Cc1ccc(Oc2c(/C=N/NC(=O)Cn3c([N+](=O)[O-])cnc3C)c(C)nn2-c2ccc(C)cc2)cc1
- MIC (Staphylococcus aureus [6]): 3.12 to 50 µg/mL (≈ 6.4 to 103 µM)
- MIC (Bacillus subtilis [7]): 3.12 to 50 µg/mL (≈ 6.4 to 103 µM)
- MIC (Escherichia coli [8]): 3.12 to 50 µg/mL (≈ 6.4 to 103 µM)
- MIC (Pseudomonas aeruginosa [9]): 3.12 to 50 µg/mL (≈ 6.4 to 103 µM)

Structure (SMILES): COc1c(N2C[C@@H]3CCCN(C[C@@H](O)Cn4c([N+](=O)[O-])cnc4C)[C@@H]3C2)c(F)cc2c(=O)c(C(=O)O)cn(C3CC3)c12
- MIC [10]: 0.03 to 2 µg/mL (≈ 0.0513 to 3.42 µM)
- MIC (Staphylococcus aureus [11]): 0.03 to 2 µg/mL (≈ 0.0513 to 3.42 µM)

Structure (SMILES): Cc1ncc([N+](=O)[O-])n1CCNCc1no[n+]([O-])c1C(N)=O
- MIC90 (Helicobacter pylori [16]): 0.5 to 32 µg/mL (≈ 1.61 to 103 µM)
- MIC90 (Helicobacter pylori [17]): 0.5 to 32 µg/mL (≈ 1.61 to 103 µM)

Structure (SMILES): Cc1ncc([N+](=O)[O-])n1CCNCc1no[n+]([O-])c1C
- MIC90 (Helicobacter pylori [16]): 0.5 to 32 µg/mL (≈ 1.77 to 113 µM)
- MIC90 (Helicobacter pylori [17]): 0.5 to 32 µg/mL (≈ 1.77 to 113 µM)

Structure (SMILES): Cc1ncc([N+](=O)[O-])n1CCOc1no[n+]([O-])c1S(=O)(=O)c1ccccc1
- MIC90 (Helicobacter pylori [16]): 0.5 to 32 µg/mL (≈ 1.26 to 80.9 µM)
- MIC90 (Helicobacter pylori [18]): 0.5 to 32 µg/mL (≈ 1.26 to 80.9 µM)
- MIC90 (Helicobacter pylori [17]): 1 to 4 µg/mL (≈ 2.53 to 10.1 µM)

Structure (SMILES): Cc1ncc([N+](=O)[O-])n1CCNCc1nonc1C#N
- MIC90 (Helicobacter pylori [16]): 0.5 to 32 µg/mL (≈ 1.8 to 115 µM)
- MIC90 (Helicobacter pylori [17]): 0.5 to 32 µg/mL (≈ 1.8 to 115 µM)

Structure (SMILES): Cc1ncc([N+](=O)[O-])n1CCOc1nonc1-c1ccccc1
- MIC90 (Helicobacter pylori [16]): 0.5 to 32 µg/mL (≈ 1.59 to 101 µM)
- MIC90 (Helicobacter pylori [18]): 0.5 to 32 µg/mL (≈ 1.59 to 101 µM)
- MIC90 (Helicobacter pylori [17]): 1 to 4 µg/mL (≈ 3.17 to 12.7 µM)

Structure (SMILES): Cc1ncc([N+](=O)[O-])n1CCNCc1nonc1C(N)=O
- MIC90 (Helicobacter pylori [16]): 0.5 to 32 µg/mL (≈ 1.69 to 108 µM)
- MIC90 (Helicobacter pylori [17]): 0.5 to 32 µg/mL (≈ 1.69 to 108 µM)

Structure (SMILES): Cc1ncc([N+](=O)[O-])n1CCOc1nonc1S(=O)(=O)c1ccccc1
- MIC90 (Helicobacter pylori [16]): 0.5 to 32 µg/mL (≈ 1.32 to 84.4 µM)
- MIC90 (Helicobacter pylori [18]): 0.5 to 32 µg/mL (≈ 1.32 to 84.4 µM)
- MIC90 (Helicobacter pylori [17]): 1 to 4 µg/mL (≈ 2.64 to 10.5 µM)

Structure (SMILES): Cc1nonc1CNCCn1c([N+](=O)[O-])cnc1C
- MIC90 (Helicobacter pylori [16]): 0.5 to 32 µg/mL (≈ 1.88 to 120 µM)
- MIC90 (Helicobacter pylori [17]): 0.5 to 32 µg/mL (≈ 1.88 to 120 µM)

Structure (SMILES): Cc1ncc([N+](=O)[O-])n1CCOc1no[n+]([O-])c1-c1ccccc1
- MIC90 (Helicobacter pylori [16]): 0.5 to 32 µg/mL (≈ 1.51 to 96.6 µM)
- MIC90 (Helicobacter pylori [18]): 0.5 to 32 µg/mL (≈ 1.51 to 96.6 µM)
- MIC90 (Helicobacter pylori [17]): 1 to 4 µg/mL (≈ 3.02 to 12.1 µM)

Structure (SMILES): NC[C@H]1O[C@H](O[C@H]2[C@H](O)[C@@H](O[C@H]3O[C@H](CO)[C@@H](O)[C@H](N)[C@H]3O)[C@H](N)C[C@@H]2N)[C@H](N)[C@@H](O)[C@@H]1O [BEKANAMYCIN]
- MIC (Staphylococcus aureus [6]): 1.56 to 3.12 µg/mL (≈ 3.23 to 6.45 µM)
- MIC (Bacillus subtilis [7]): 1.56 to 3.12 µg/mL (≈ 3.23 to 6.45 µM)
- MIC (Escherichia coli [8]): 1.56 to 3.12 µg/mL (≈ 3.23 to 6.45 µM)
- MIC (Pseudomonas aeruginosa [9]): 1.56 to 3.12 µg/mL (≈ 3.23 to 6.45 µM)

Structure (SMILES): O=C(N[C@H](CO)[C@H](O)c1ccc([N+](=O)[O-])cc1)C(Cl)Cl [CHLORAMPHENICOL]
- MIC (Staphylococcus aureus [1]): 7.8 to 250 µg/mL
- MIC (Escherichia coli [12]): 7.8 to 250 µg/mL (≈ 24.1 to 774 µM)
- MIC (Pseudomonas aeruginosa [13]): 7.8 to 250 µg/mL (≈ 24.1 to 774 µM)
- MIC (Candida albicans): 7.8 to 250 µg/mL (≈ 24.1 to 774 µM)
- MIC (Proteus vulgaris): 7.8 to 250 µg/mL (≈ 24.1 to 774 µM)
- MIC (Klebsiella aerogenes [14]): 7.8 to 250 µg/mL (≈ 24.1 to 774 µM)
- MIC (Enterococcus faecalis): 7.8 to 250 µg/mL (≈ 24.1 to 774 µM)
- MIC [15]: 7.8 to 250 µg/mL (≈ 24.1 to 774 µM)
- MIC (Salmonella typhimurium): 7.8 to 250 µg/mL (≈ 24.1 to 774 µM)

Structure (SMILES): O=C(O)c1cn(C2CC2)c2cc(N3CCNCC3)c(F)cc2c1=O [CIPROFLOXACIN]
- MIC (Streptococcus pyogenes): 189 µM (≈ 62.6 µg/mL)
- ED50 (Escherichia coli [19]): 4.53 mg/kg

Structure (SMILES): COc1c(N2CCNC(C)C2)c(F)cc2c(=O)c(C(=O)O)cn(C3CC3)c12 (configuration not stated) [GATIFLOXACIN]
- MIC [10]: 0.06 to 16 µg/mL (≈ 0.16 to 42.6 µM)
- MIC (Staphylococcus aureus [11]): 0.06 to 16 µg/mL (≈ 0.16 to 42.6 µM)
